# Assay results published in patent publication US20260191874A1, “FUSED AMINO PYRIMIDINE COMPOUNDS FOR TREATMENT OF AUTISM SPECTRUM DISORDER, OBSESSIVE COMPULSIVE DISORDER AND TICS” (Ovid Therapeutics Inc., priority 2024, published 2026).
# Tested on: acute brain slices
# Assay: Acute brain slices exposed to 0-Mg
compound,measurement,value
"C[C@@H]1CN(c2nc3c(c(Nc4ccc(C5CCCCC5)cc4)n2)COC3)CCO1 [Compound A, (R)—N-(4-cyclohexylphenyl)-2-(2-methylmorpholino)-5,7-dihydrofuro[3,4-d]pyrimidin-4-amine]",neuronal Cl− accumulation and development of late recurrent discharges (LRDs),reduced
